Source: patent publication US20080161288A1, “COMPOUNDS” (Pfizer Inc., priority 2006, published 2008)
Where a name gives a salt, the structure may show the parent alone.

Legend:
[1] = target: T1, bovine beta-2 adrenoceptor (Bos taurus, UniProt Q28044); assay: cAMP assay in CHO cells transfected with the bovine beta-2 adrenoceptor; assay type: cell-based; conditions: cAMP (DiscoveRx Hit Hunter cAMP II) in CHO cells transfected with bovine beta-2 adrenoceptor, 30 minutes with compound, 0.5 mM IBMX
T1 construct: expressed in transfected cells; host or cells: CHO cells
Summary of the method: (§1)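 Transfected CHO cells were preincubated 30 min with 0.5 mM IBMX in PBS. Compound (5×10^−12 to 10^−5 M) was then applied for 30 min at 37 °C, 5% CO2, followed by cAMP measurement with an enzyme-fragment complementation kit. Duplicates, EC50 from curve fitting.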

[2] = target: T2, porcine beta-2 adrenoceptor (Sus scrofa, UniProt Q28997); assay: cAMP assay in CHO cells transfected with the porcine beta-2 adrenoceptor; assay type: cell-based; conditions: cAMP (DiscoveRx Hit Hunter cAMP II) in CHO cells transfected with porcine beta-2 adrenoceptor, 30 minutes with compound, 0.5 mM IBMX
T2 construct: expressed in transfected cells; host or cells: CHO cells
Summary of the method: as §1

T1 sequence (Q28044 whole entry): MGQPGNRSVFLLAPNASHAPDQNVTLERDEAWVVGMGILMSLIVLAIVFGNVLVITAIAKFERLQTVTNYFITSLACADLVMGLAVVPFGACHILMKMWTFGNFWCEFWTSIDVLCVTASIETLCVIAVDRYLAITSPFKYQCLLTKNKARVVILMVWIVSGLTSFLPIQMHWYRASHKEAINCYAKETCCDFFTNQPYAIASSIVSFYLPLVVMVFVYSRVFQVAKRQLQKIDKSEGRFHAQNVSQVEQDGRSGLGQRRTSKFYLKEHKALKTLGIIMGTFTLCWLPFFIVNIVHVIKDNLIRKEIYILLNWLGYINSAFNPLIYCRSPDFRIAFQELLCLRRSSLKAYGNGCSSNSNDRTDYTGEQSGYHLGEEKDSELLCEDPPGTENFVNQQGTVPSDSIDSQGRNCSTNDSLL
T2 sequence (Q28997 whole entry): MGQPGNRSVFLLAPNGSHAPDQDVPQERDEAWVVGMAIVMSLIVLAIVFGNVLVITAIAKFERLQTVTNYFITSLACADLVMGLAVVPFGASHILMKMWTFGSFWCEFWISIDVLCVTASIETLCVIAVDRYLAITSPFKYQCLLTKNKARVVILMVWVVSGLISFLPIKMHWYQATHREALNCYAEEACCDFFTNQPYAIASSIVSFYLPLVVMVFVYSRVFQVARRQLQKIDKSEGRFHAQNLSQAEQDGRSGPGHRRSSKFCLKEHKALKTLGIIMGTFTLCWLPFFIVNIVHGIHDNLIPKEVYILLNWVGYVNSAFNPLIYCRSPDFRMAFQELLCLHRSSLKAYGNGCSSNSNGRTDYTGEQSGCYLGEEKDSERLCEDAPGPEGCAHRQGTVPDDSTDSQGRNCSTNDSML

Compound	EC50 [1]	EC50 [2]
CC(CCc1ccccc1O)N[C@@H]1CCn2c(=O)[nH]c3cccc(c32)[C@H]1O (single isomer, unassigned) [Example 48, Hydrochloride salt of 7-hydroxy-6-{[3-(2-hydroxyphenyl)-1-methylpropyl]amino}-4,5,6,7-tetrahydroimidazo[4,5,1-jk][1]benzazepin-2(1H)-one]	1 nM	1.9 nM
C[C@@H](CCc1cccc(NC(=O)C(F)(F)F)c1)N[C@@H]1CCn2c(=O)[nH]c3cccc(c32)[C@H]1O (single isomer, unassigned) [Example 57, 2,2,2-Trifluoro-N-{3-[3-{[7-hydroxy-2-oxo-1,2,4,5,6,7-hexahydroimidazo[4,5,1-jk][1]benzazepin-6-yl]amino}butyl]phenyl}acetamide]	6.1 nM	7.1 nM
CC(CC(C)(C)c1ccccc1)N[C@@H]1CCn2c(=O)[nH]c3cccc(c32)[C@H]1O (single isomer, unassigned) [Example 14a, 6-[(1,3-Dimethyl-3-phenylbutyl)amino]-7-hydroxy-4,5,6,7-tetrahydroimidazo[4,5,1-jk][1]benzazepin-2(1H)-one]	428 nM	385 nM
CC(CCc1cccc(O)c1)NC1CCn2c(=O)[nH]c3cccc(c32)C1O (single isomer, unassigned) [Example 39, 7-Hydroxy-6-{[3-(3-hydroxyphenyl)-1-methylpropyl]amino}-4,5,6,7-tetrahydroimidazo[4,5,1-jk][1]benzazepin-2(1H)-one]	7.5 nM	5.6 nM
CC(/C=C/c1ccccc1NS(C)(=O)=O)N[C@@H]1CCn2c(=O)[nH]c3cccc(c32)[C@H]1O (mixture of isomers) [Example 42, N-{2-[3-{[7-Hydroxy-2-oxo-1,2,4,5,6,7-hexahydroimidazo[4,5,1-jk][1]benzazepin-6-yl]amino}but-1-en-1-yl]phenyl}methanesulfonamide]	258 nM	104 nM
CC(CCc1ccccc1O)N[C@@H]1CCn2c(=O)[nH]c3cccc(c32)[C@H]1O (mixture of isomers) [Example 6a, 7-Hydroxy-6-{[3-(2-hydroxyphenyl)-1-methylpropyl]amino}-4,5,6,7-tetrahydroimidazo[4,5,1-jk][1]benzazepin-2(1H)-one]	1.5 nM	1.5 nM
CCS(=O)(=O)Nc1ccccc1CCC(C)NC1CCn2c(=O)[nH]c3cccc(c32)C1O (single isomer, unassigned) [Example 56, N-{2-[3-{[7-Hydroxy-2-oxo-1,2,4,5,6,7-hexahydroimidazo[4,5,1-jk][1]benzazepin-6-yl]amino}butyl]phenyl}ethanesulfonamide]	5.2 nM	2.8 nM
